Measured values from publication PMC5974779, “Prediction of Drug-Induced Hepatotoxicity Using Long-Term Stable Primary Hepatic 3D Spheroid Cultures in Chemically Defined Conditions” (Toxicological Sciences, 2018).
Read-outs that look alike come from different tables or passages of the source.

Columns and labels:
[1] = therapeutic total cmax; ref PMID; cited from earlier work
[2] = tested on: PHH spheroids (hanging-drop); details: cited from earlier work; for Hanging-drop spheroids (Proctor 2017) 100x: PHH hanging-drop spheroids, 100x Cmax, ref Proctor 2017; for hepatotoxicity classification in hanging-drop PHH spheroids: 100× cmax, 2 weeks, ref Proctor et al., 2017
[3] = tested on: clinical DILI in man; details: cited from earlier work; for Clinical DILI classification (Figure 5): structural analogue pairs, 2008 and others
[4] = tested on: primary human hepatocytes (PHH) 3D spheroids
[5] = ref DrugBank and Prescribers' Digital Reference database; cited from earlier work
[6] = tested on: PHH 2D sandwich cultures; details: PHH 2D sandwich cultures, 100x Cmax; ref Xu 2008; cited from earlier work
[7] = DILI classification score, ref Suzuki et al. (2010)
[8] = FDA drug labeling DILI score, ref Chen et al., 2011
[9] = clinical DILI classification in man (POS/NEG)
[10] = clinical DILI classification used in this study, Supplementary Table 2, ref Chen et al., 2011, Guo et al., 2005, O'Brien et al., 2006, Sakatis et al., 2012, Suzuki et al., 2010, Xu et al., 2008
[11] = clinical DILI classification, Supplementary Table 1, ref Chen et al., 2011, Guo et al., 2005, O'Brien et al., 2006, Sakatis et al., 2012, Suzuki et al., 2010, Xu et al., 2008
[12] = reported pattern of liver damage, Supplementary Table 2, ref literature
[13] = ref Chen et al., 2011, Xu et al.
[14] = clinical DILI classification, ref Xu et al. (2008)
[15] = clinical hepatotoxicity classification, ref O'Brien et al. (2003)

| Structure (SMILES) | Cmax [1] | Hanging-drop spheroids (Proctor 2017) 100x [2] | Classified as ([3]; in vivo) | Clinical DILI class (panel heading of Figure 4) ([3]; in vivo) | DILI in vivo ([3]; in vivo) | FDA (0-8) ([3]; in vivo) | Type of DILI ([3]; in vivo) | Chemically defined spheroids (this study) 20x [4] | Extent of hepatic metabolism [5] | FDA (0-8) [3, 8] | DILI in vivo [3, 9] | Classified as [3, 10] | DILI in vivo [3, 11] | Type of DILI [3, 12] | 2Dsw (Xu 2008) 100x [6] | Sakatis et al. (2012) ([3]; in vivo) | Xu et al. (2008) [3, 14] | other results |
| --- | --- | --- | --- | --- | --- | --- | --- | --- | --- | --- | --- | --- | --- | --- | --- | --- | --- | --- |
| CC(C(=O)O)c1ccc2oc(-c3ccc(Cl)cc3)nc2c1 (stereo not shown) [Benoxaprofen] | 33100 nM | Negative | POS | Severe DILI | POS | Withdrawn | Hepatocellular injury | Negative | Moderate | – | – | – | – | – | – | – | – | FDA (Severity) ([3]; in vivo): most DILI concern; Suzuki et al. (2010) ([3]; in vivo): 3 |
| COc1ccccc1Oc1c(NS(=O)(=O)c2ccc(C(C)(C)C)cc2)nc(-c2ncccn2)nc1OCCO [Bosentan] | – | Positive | – | – | – | – | – | Positive | Extensive | 7 | POS | POS | POS | Hepatocellular injury or Mixed hepatitis | – | – | – | Suzuki et al. (2010) [3, 7]: 1; FDA (Severity) ([3]; FDA drug labeling DILI concern, ref Chen et al., 2011): most DILI concern; Clinical DILI classification (Figure 5) [3, 13]: DILI positive; hepatotoxicity evaluation in CD-spheroids [4]: clearly detected bosentan-induced liver injury |
| CN(C)CCCN1c2ccccc2Sc2ccc(Cl)cc21 [Chlorpromazine] | 840 nM | Positive | POS | High DILI concern | POS | 2 | Cholestatic injury or Mixed hepatitis | Positive | Extensive | – | – | – | – | – | Positive | Hepatotoxic | – | Guo et al. (2005) ([3]; in vivo): 3; O'Brien et al. (2003) ([3]; in vivo): Moderately; Suzuki et al. (2010) ([3]; in vivo): 2; Xu et al. (2008) ([3]; in vivo): Positive |
| O=C1CN(/N=C/c2ccc(-c3ccc([N+](=O)[O-])cc3)o2)C(O)=N1 [Dantrolene] | 3690 nM | Negative | POS | Severe DILI | POS | 8 | Hepatocellular injury or Mixed hepatitis | Positive | Extensive | – | – | – | – | – | Positive | Hepatotoxic | – | hepatotoxicity classification in hanging-drop PHH spheroids [2]: previously missed; FDA (Severity) ([3]; in vivo): most DILI concern; Guo et al. (2005) ([3]; in vivo): 3; O'Brien et al. (2003) ([3]; in vivo): Severely; Xu et al. (2008) ([3]; in vivo): Positive; hepatotoxicity evaluation in CD-spheroids [4]: revealed the DILI liability |
| CCOC(=O)c1ncn2c1CN(C)C(=O)c1cc(F)ccc1-2 [Flumazenil] | 1120 nM | Negative | – | – | – | – | – | Negative | Extensive | 0 | NEG | NEG | NEG | Non-hepatotoxic | Negative | – | Negative | O'Brien et al. (2003) [3, 15]: Non-toxic |
| CN(Cc1cnc2nc(N)nc(N)c2n1)c1ccc(C(=O)N[C@@H](CCC(=O)O)C(=O)O)cc1 [Methotrexate] | – | Negative | – | – | – | – | – | Positive | Moderate | 3 | POS | POS | POS | Hepatocellular injury | Negative | – | Positive | hepatotoxicity classification in hanging-drop PHH spheroids [2]: previously missed; Guo et al. (2005) ([3]; DILI classification score, ref Guo et al. (2005)): 3; Suzuki et al. (2010) [3, 7]: 1; O'Brien et al. (2003) [3, 15]: Severely; Sakatis et al. (2012) ([3]; clinical hepatotoxicity classification, ref Sakatis et al. (2012)): Hepatotoxic; hepatotoxicity evaluation in CD-spheroids [4]: revealed the DILI liability; hepatotoxicity evaluation in CD-spheroids ([4]; human, 14 days): clearly detected already at 1× cmax exposure levels |
| CC(C)(C)NCC(O)COc1cccc2c1CC(O)C(O)C2 (stereo not shown) [Nadolol] | – | Negative | – | – | – | – | – | Negative | Minimal | 3 | NEG | NEG | NEG | Non-hepatotoxic | Negative | – | Negative | – |
| O=C1CN(/N=C/c2ccc([N+](=O)[O-])o2)C(=O)N1 [Nitrofurantoin] | 21000 nM | Positive | POS | Severe DILI | POS | 8 | Hepatocellular injury or Autoimmune hepatitis | – | Minimal | – | – | – | – | – | – | Hepatotoxic | – | FDA (Severity) ([3]; in vivo): most DILI concern; Guo et al. (2005) ([3]; in vivo): 3; O'Brien et al. (2003) ([3]; in vivo): Severely; Suzuki et al. (2010) ([3]; in vivo): 2; association with idiopathic autoimmune hepatitis ([3]; in vivo): associated with cases of idiopathic autoimmune hepatitis |
| Cc1ccccc1C(OCCN(C)C)c1ccccc1 (stereo not shown) [Orphenadrine] | 490 nM | Negative | NEG | DILI negative | NEG | 0 | Non-hepatotoxic | – | Extensive | – | – | – | – | – | Negative | non-hepatotixic | – | Xu et al. (2008) ([3]; in vivo): Negative |
| C#CCN(C)Cc1ccccc1 [Pargyline] | 820 nM | Negative | – | – | – | – | – | Negative | Moderate | – | NEG | NEG | NEG | Non-hepatotoxic | – | – | – | – |
| CN(CCOc1ccc(CC2SC(=O)NC2=O)cc1)c1ccccn1 (stereo not shown) [Rosiglitazone] | 950 nM | Positive | – | – | – | – | – | – | Extensive | 3 | NEG | NEG | NEG | Non-hepatotoxic | Negative | – | Negative | O'Brien et al. (2003) [3, 15]: Non-toxic; Clinical DILI classification (Figure 5) [3, 13]: DILI negative |
